According to patent US6218405A, “Heteroarylsulfonamide derivatives and pharmaceutical compositions containing them” (KNOLL Aktiengesellschaft, priority 1996, dated 2001):

What was measured:
5-HT1A receptors = biological target: T1, 5-HT1A receptors (Rattus norvegicus, UniProt P19327); test: 5-HT1A receptor binding: displacement of [3H]8-hydroxy-2-(dipropylamino)tetralin in rat hippocampal tissue; set-up: species or system male Charles River CD rats; settings: 0.5 h, 10^-6 M, [3H]-OH-DPAT 2 nM, 25° C., 30 minutes, read-out: % displacement at 10^-6 M, 5-HT1A (column headed Ki (nM) value for 5-HT1A)
T1 construct: Hippocampal tissue from the brains of male Charles River CD rats; from tissue; host or cells: hippocampal tissue from brains of male Charles River CD rats
T1 sequence (P19327 1-422): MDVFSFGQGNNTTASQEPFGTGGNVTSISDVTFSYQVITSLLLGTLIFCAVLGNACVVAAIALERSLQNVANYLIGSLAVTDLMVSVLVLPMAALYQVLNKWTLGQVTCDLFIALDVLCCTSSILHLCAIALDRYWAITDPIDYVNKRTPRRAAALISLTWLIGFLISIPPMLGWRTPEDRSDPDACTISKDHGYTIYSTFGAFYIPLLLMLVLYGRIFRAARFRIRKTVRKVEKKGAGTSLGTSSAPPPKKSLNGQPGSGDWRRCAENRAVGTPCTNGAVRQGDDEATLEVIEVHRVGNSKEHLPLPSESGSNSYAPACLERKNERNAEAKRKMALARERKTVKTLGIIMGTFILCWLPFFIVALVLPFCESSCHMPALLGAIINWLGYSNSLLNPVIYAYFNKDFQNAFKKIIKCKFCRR
Procedure: Hippocampal tissue from the brains of male Charles River CD rats weighing between 150-250 g were homogenised in ice-cold 50 mM Tris-HCl buffer (pH 7.7) when measured at 25° C., 1:40 w/v) and centrifuged at 30,000 g at 4° C. for 10 minutes. The pellet was rehomogenised in the same buffer, incubated at 37° C. for 10 minutes and centrifuged at 30,000 g at 4° C. for 10 minutes. The final pellet was resuspended in 50 mM Tris-HCl buffer (pH 7.7) containing 4 mM CaCl2, 0.1% L-ascorbic acid and 10 μM pargyline hydrochloride (equivalent to 6.25 mg wet weight of tissue/ml) and used immediately in the binding assay. Aliquots (400 μl; equivalent to 2.5 mg wet weight of tissue/tube) of this suspension were added to tubes containing the ligand (50 μl; 2 nM) and distilled water (50 μl; total binding) or 5-HT (50 μl; […]; non-specific binding) or test compound (50 μl; at a single concentration of 10^-6 M or at 10 concentrations ranging from 10^-11 -10^-3 M). The ligand was [^3 H]8-hydroxy-2-(dipropylamino)tetralin ([^3 H]-OH-DPAT) and the mixture was incubated at 25° C. for 30 minutes before the incubation was terminated by rapid filtration.
The filters were washed with ice-cold Tris-HCl buffer and dried. The filters were punched out into vials, scintillation fluid added and radioactivity determined by liquid scintillation counting. The percentage displacement of specific binding of the tritiated ligand was calculated for the single concentration (10^-6 M) of test compound. Displacement curves were then produced for those compounds which displaced ≥50% of specific binding of the tritiated ligand at 10^-6 M using a range of concentrations of the compound. The concentration which gave 50% inhibition of specific binding (IC50) was obtained from the curve. The inhibition coefficient Ki was then calculated using the formula [formula]
(§1) in which [ligand] is the concentration of the tritiated ligand used and KD is the equilibrium dissociation constant for the ligand.
(§2) The % figures in Table 1 are for % displacement at 10^-6 M.

[1] = tested on: D2-like dopamine receptors; test: D2-like dopamine receptor binding: displacement of tritiated (S)-sulpiride in rat striatal tissue; set-up: species or system male Charles River CD rats; settings: tritiated (S)-sulpiride 1 nM, 4° C., 40 minutes
Procedure: Striatal tissue from the brains of male Charles River CD rats weighing between 140-250 g were homogenised in ice-cold 50 mM Tris-HCl buffer (pH 7.7 when measured at 25° C.) and centrifuged at 40,000 g for 10 minutes. The pellet was resuspended in Tris salts buffer (50 mM Tris-HCl buffer containing 120 mM NaCl, 5 mM KCl, 2 mM CaCl2 and 1 mM MgCl2 with the addition of 6 mM ascorbic acid; pH 7.7 when measured at 25° C.), and again centrifuged at 40,000 g for 10 minutes. The final pellet was stored at -80° C. Before each test the pellet was resuspended in Tris salts buffer (equivalent to 2 mg wet weight of tissue/ml). Aliquots (720 μl; equivalent to 1.44 mg wet weight of tissue/tube) of this suspension were then added to tubes containing the ligand (40 μl; 1 nM) and Tris salts buffer (40 μl; total binding) or spiroperidol (40 μl; 10 nM; non-specific binding) or test compound (40 μl; at a single concentration of 10^-6 M or at 6 concentrations ranging from 10^-11 -10^-4 M). The ligand was tritiated (S)-sulpiride and the mixture was incubated at 4° C. for 40 minutes before the incubation was terminated by rapid filtration.
The filters were washed with ice-cold Tris-HCl buffer and dried. The filters were punched out in to vials, scintillation fluid added and were left for about 20 hours before being counted by scintillation spectrophotometry. The percentage displacement of specific binding of the tritiated ligand was calculated for the single concentration (10^-6 M) of test compound. Displacement curves were then produced over a range of concentrations for those compounds which displaced ≥50% of specific binding of the tritiated ligand at 10^-6 M. The concentration which gave a 50% inhibition of specific binding (IC50) was obtained from the curve. The inhibition coefficient Ki was then calculated using the formula [formula]
as §1, §2

| inhibition at 1 µM (5-HT1A receptors) [%] | % displacement at 10^-6 M, D2-like (column headed Ki (nM) value for D2-like) [1] [%] | Structure (SMILES) |
| --- | --- | --- |
| 98 | 106 | O=S(=O)(NCC1CCN(C[C@H]2COc3ccc4scc(Cl)c4c3O2)CC1)c1ccccn1 [Example 1, (S)-N{[1-(9-chloro-2,3-dihydrothieno[3,2-f][1,4]benzodioxin-2-ylmethyl)piperid-4-yl]methyl}pyridine-2-sulphonamide] |
| 99 | 105 | O=S(=O)(NCC1CCN(C[C@H]2COc3ccc4[nH]ccc4c3O2)CC1)c1ccccn1 [Example 2, (S)-N-{[1-(2,3-dihydro-7H-1,4-dioxino[2,3-e]indol-2-ylmethyl)piperid-4-yl]methyl}pyridine-2-sulphonamide] |
| 97 | 105 | CC(=O)Nc1ccc(S(=O)(=O)NCC2CCN(C[C@H]3COc4ccc5[nH]ccc5c4O3)CC2)cc1 [Example 3, (S)-4-acetamido-N-{[1-(2,3-dihydro-7H-1,4-dioxino[2,3-e]indol-2-ylmethyl)piperid-4-yl]methyl}benzenesulphonamide] |
